Data on 13 compounds can be found in ChEMBL document CHEMBL1201862, “PubChem BioAssay data set” (2004).

Experiment in all cases: inhibition of tumour cell growth, NCI panel, 48 h
Assay [1] deals with SF-295.
The subject of assay [2] is HCC 2998.
For assay [3], the system named is HL-60.
Assay [4] concerns COLO 205.
In assay [5] the test system is SN12C.
The test system of assay [6] is MOLT-4.
In assay [7] the test system is TK-10.
The subject of assay [8] is A549.
Assay [9] has as its system HCT-116.
Assay [10] concerns SK-MEL-28.
The subject of assay [11] is SK-MEL-2.
The test system of assay [12] is UACC-257.
The test system of assay [13] is HOP-18.
Assay [14] concerns U-251.
Assay [15] has as its system RXF 393.
For assay [16], the system named is HT-29.

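Results reflect a 48-hour exposure of cells in 96-well plates to compound at five concentrations. At the GI50, growth is halved.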 Activity calls are given as the source filed them. No stated cut-off is given here; in the data, active = GI50 up to about 1.1 µM and inactive = higher.

For the compound `COc1ccc(C(O)/C(=C/n2ccnc2)c2ccccc2)cc1OC` (configuration not stated), the GI50 in [1], in assay [2], in assay [3], in assay [4], in assay [5] and in [6] was > 100 µM (inactive) in each case. In addition, the GI50 in assay [7], in [8], in assay [9], in assay [10], in assay [11] and in [12] was > 100 µM (inactive) throughout. The GI50 in assay [13], in [14], in [15] and in assay [16] was > 100 µM (inactive) throughout.
Take `C=CCNC(=O)NCCCCC(NC(C)=O)C(=O)NCc1ccccc1` (configuration not stated): the GI50 in [1], in [2], in assay [3], in assay [4], in assay [5] and in assay [6] was > 100 µM (inactive) throughout. Further, the GI50 in assay [7], in assay [8], in [10], in [11], in assay [12] and in [13] was > 100 µM (inactive) throughout. Also, the GI50 in assay [14], in [15] and in [16] was > 100 µM (inactive) each time.
In the case of `CCC1(O)C(=O)OCc2c1cc1n(c2=O)Cc2c-1nc1ccccc1c2OC` (configuration not stated), the GI50 in [1] is < 0.01 µM (active); in assay [2] it was 0.218 µM (active); in assay [3], < 0.01 µM (active); in [4] it was 0.378 µM (active); in assay [5], < 0.01 µM (active); in [6] it was < 0.01 µM (active). Moreover, the GI50 in [7] was 3.52 µM (inactive); in [8], < 0.0127 µM (active); in assay [9] it was 0.0453 µM (active); in assay [10], 0.32 µM (active); in assay [11] it was 2.16 µM (inactive); in assay [12] it was 0.0575 µM (active). The GI50 in assay [13] is 0.372 µM (active); in assay [14], < 0.01 µM (active); in assay [15], < 0.0136 µM (active); in [16], 0.061 µM (active).
For `Cc1ccc(C(=O)NCCN(C)C)c2nc3ccccc3cc12`, the GI50 was 1.07 µM (active) in assay [1]; 2.56 µM (inactive) in assay [2]; 1.42 µM (inactive) in [3]; 1.57 µM (inactive) in assay [4]; 0.809 µM (active) in [5]; 0.608 µM (active) in assay [6]. Besides, the GI50 in assay [7] is 1.54 µM (inactive); in assay [8] it was 0.92 µM (active); in [9], 0.468 µM (active); in assay [10], 1.95 µM (inactive); in [11], 2.53 µM (inactive); in [12] it was 1.3 µM (inactive). In addition, the GI50 in assay [13] is 1.92 µM (inactive); in assay [14] it was 0.644 µM (active); in assay [15] it was 1.29 µM (inactive); in [16] it was 0.462 µM (active).
As to `COC(=O)N/N=C(\C(=O)Nc1cccc([N+](=O)[O-])c1)c1nc2ccc([N+](=O)[O-])cc2nc1O`, the GI50 in assay [1] is > 100 µM (inactive); in assay [2], 33 µM (inactive); in [3], > 100 µM (inactive); in assay [4], 37.1 µM (inactive); in assay [5], > 100 µM (inactive); in assay [6], 52.7 µM (inactive). For the same compound, the GI50 in [7] is > 100 µM (inactive); in assay [8], 42.9 µM (inactive); in assay [9] it was 61.7 µM (inactive); in [10] it was > 100 µM (inactive); in assay [12], > 100 µM (inactive); in [13], > 100 µM (inactive). Further, the GI50 in assay [15] is > 100 µM (inactive); in assay [16], 60.7 µM (inactive).
For the compound `O=C(O)CNS(=O)(=O)c1ccc(NC(=O)CI)cc1`, the GI50 is 26.3 µM (inactive) in [1]; > 100 µM (inactive) in [2]; 18.2 µM (inactive) in [3]; 26.2 µM (inactive) in [4]; 32.5 µM (inactive) in assay [5]; 12.1 µM (inactive) in [6]. Besides, the GI50 was 63 µM (inactive) in assay [7]; 91.2 µM (inactive) in [8]; 24.4 µM (inactive) in [10]; 23.3 µM (inactive) in assay [11]; 42.5 µM (inactive) in assay [12]; 34.3 µM (inactive) in assay [13]. The GI50 is 19.1 µM (inactive) in assay [14], 15.5 µM (inactive) in assay [15] and 21.2 µM (inactive) in assay [16].
Consider `COP(=O)(OC)C(NC(=O)C(F)(F)F)(c1ccccc1)C(F)(F)F` (configuration not stated), for which the GI50 in assay [1], in assay [2], in [3], in assay [4], in assay [5] and in [6] was > 100 µM (inactive) throughout. Moreover, the GI50 in assay [7], in assay [8], in assay [9], in assay [10], in assay [11] and in [12] was > 100 µM (inactive) throughout. Besides, the GI50 in assay [13], in [14], in assay [15] and in assay [16] was > 100 µM (inactive) throughout.
Turning to `O=[N+]([O-])c1cnn(C2=CNc3ccccc3N=C2)c1`, the GI50 in assay [1], in assay [2], in [3], in assay [4], in assay [5] and in [6] was > 100 µM (inactive) each time. Also, the GI50 in [7], in [8], in [9], in [10], in assay [11] and in [12] was > 100 µM (inactive) each time. Further, the GI50 in assay [13] was > 100 µM (inactive); in [14], > 100 µM (inactive); in assay [15], 46.7 µM (inactive); in assay [16], > 100 µM (inactive).
Regarding `O=C1CC[C@@H](S(=O)(=O)c2ccccc2)[C@@H](/C=C/c2ccccc2)O1`, the GI50 in assay [1], in assay [2], in [3], in [4], in assay [5] and in [6] was > 100 µM (inactive) in each case. For the same compound, the GI50 in [7], in assay [8], in assay [9], in assay [10], in assay [12] and in assay [13] was > 100 µM (inactive) each time. In addition, the GI50 in assay [14], in assay [15] and in [16] was > 100 µM (inactive) throughout.
Turning to `Cc1ccc2c(ccc(/C=C\c3cc(C)c4cccnc4c3O)[n+]2C)c1`, the GI50 in assay [1] was 10 µM (inactive); in assay [2] it was 1.81 µM (inactive); in [3] it was 0.454 µM (active); in assay [4], 9.89 µM (inactive); in [5] it was 2 µM (inactive); in [6], 1.05 µM (active). In addition, the GI50 in [8] was 8.43 µM (inactive); in assay [9], 0.61 µM (active); in assay [12], 11.7 µM (inactive); in [13] it was 1.81 µM (inactive); in [14], 1.75 µM (inactive).
As to `COC(=O)C1=C(C[S+]([O-])c2ccc([N+](=O)[O-])cc2[N+](=O)[O-])C2C=CC1C2` (configuration not stated), the GI50 in assay [1] was 65 µM (inactive); in assay [2] it was 38.4 µM (inactive); in assay [3], 16.2 µM (inactive); in assay [4], 19.2 µM (inactive); in assay [5], 23.7 µM (inactive); in [6], 22.2 µM (inactive). Also, the GI50 in assay [7] is 23.4 µM (inactive); in assay [8] it was 57 µM (inactive); in [9], 21.8 µM (inactive); in assay [11] it was 41.4 µM (inactive); in [12] it was 30.2 µM (inactive); in [13] it was 29.4 µM (inactive). Further, the GI50 is 20 µM (inactive) in assay [14], 26.2 µM (inactive) in assay [15] and 17.7 µM (inactive) in [16].
For `CCOC(=O)/C(C)=C(/O)C(=O)OCC`, the GI50 in [1], in assay [2], in [3], in assay [4], in assay [5] and in assay [6] was > 100 µM (inactive) each time. The GI50 in [7], in assay [8], in [9], in [10], in assay [11] and in assay [12] was > 100 µM (inactive) throughout. The GI50 in assay [13], in [14], in assay [15] and in assay [16] was > 100 µM (inactive) each time.
Consider `CC(C)(O)C(O)COc1c2c(cc3oc(=O)ccc13)OCO2` (configuration not stated), for which the GI50 in [1], in assay [2], in assay [3], in assay [4], in [5] and in assay [6] was > 100 µM (inactive) each time. Moreover, the GI50 in [7], in assay [8], in assay [9], in [10], in assay [11] and in [12] was > 100 µM (inactive) in each case. Also, the GI50 in [13], in assay [14], in assay [15] and in assay [16] was > 100 µM (inactive) in each case.
